Assay results reported in the NIST ThermoML archive (doi:10.1021/je100407f).
Where “and” joins values, the source holds several entries; their conditions need not be identical. Equal entries are not always repeated. Numbers after ± are expanded uncertainties.

Details: 101 kPa, Liquid mixture 1, Ring tensiometer

SMILES	interfacial tension (283.15 K)	interfacial tension (293.15 K)	interfacial tension (303.15 K)	interfacial tension (313.15 K)	interfacial tension (323.15 K)	interfacial tension (333.15 K)
CCCCCn1cc[n+](C)c1.F[P-](F)(F)(F)(F)F [1-methyl-3-pentylimidazolium hexafluorophosphate] + CCCCCCC	12.23 ± 0.3 mN/m	12.12 ± 0.29 mN/m	12.02 ± 0.29 mN/m	11.9 ± 0.29 mN/m	11.63 ± 0.29 mN/m	11.53 ± 0.29 mN/m
CCCCCCn1cc[n+](C)c1.F[P-](F)(F)(F)(F)F [1-hexyl-3-methylimidazolium hexafluorophosphate] + CCCCCC	9.01 ± 0.26 mN/m	8.9 ± 0.26 mN/m	8.83 ± 0.26 mN/m	8.84 ± 0.26 mN/m	8.73 ± 0.26 mN/m	8.68 ± 0.26 mN/m
CCCCCn1cc[n+](C)c1.F[P-](F)(F)(F)(F)F [1-methyl-3-pentylimidazolium hexafluorophosphate] + CCCCCC	12.37 ± 0.3 mN/m	11.92 ± 0.29 mN/m	–	12 ± 0.29 mN/m and 11.93 ± 0.29 mN/m	11.78 ± 0.29 mN/m	11.67 ± 0.29 mN/m
CCCCn1cc[n+](C)c1.F[P-](F)(F)(F)(F)F [1-butyl-3-methylimidazolium hexafluorophosphate] + CCCCCCC	14.81 ± 0.32 mN/m	14.69 ± 0.32 mN/m	14.67 ± 0.32 mN/m	14.59 ± 0.32 mN/m	14.5 ± 0.32 mN/m	14.41 ± 0.32 mN/m
CCCCCCn1cc[n+](C)c1.F[P-](F)(F)(F)(F)F [1-hexyl-3-methylimidazolium hexafluorophosphate] + CCCCCCC	8.86 ± 0.26 mN/m	8.74 ± 0.26 mN/m	8.73 ± 0.26 mN/m	8.69 ± 0.26 mN/m	8.54 ± 0.26 mN/m	8.47 ± 0.26 mN/m
CCCCCCCC[n+]1ccn(C)c1.F[P-](F)(F)(F)(F)F [1-octyl-3-methylimidazolium hexafluorophosphate] + CCCCCC	4.89 ± 0.23 mN/m	4.77 ± 0.23 mN/m	4.66 ± 0.23 mN/m	4.52 ± 0.22 mN/m	4.45 ± 0.22 mN/m	4.46 ± 0.22 mN/m
